Values of other authors in patent publication US20050197327A1, “Compounds, compositions, and methods” (priority 2003, published 2005).

Test system: A549 cells
Details: data provided by National Cancer Institute

Row | SMILES | GI50
1 | CC(=O)O[C@H]1C(=O)[C@@]2(C)[C@H]([C@H](OC(=O)c3ccccc3)[C@]3(O)C[C@H](OC(=O)[C@H](O)[C@@H](NC(=O)c4ccccc4)c4ccccc4)C(C)=C1C3(C)C)[C@]1(OC(C)=O)CO[C@@H]1C[C@@H]2O [paclitaxel] | 4 nM
2 | O=c1[nH]cc(F)c(=O)[nH]1 [5-fluorouracil] | 1000 nM
3 | COc1cccc2c1C(=O)c1c(O)c3c(c(O)c1C2=O)C[C@@](O)(C(=O)CO)C[C@@H]3O[C@H]1C[C@H](N)[C@H](O)[C@H](C)O1 [doxorubicin] | 63 nM
4 | NC(=O)NO [hydroxyurea] | 500000 nM
